Experimental data taken from the supplement of paper PMC10627819.

Columns and labels:
S. aureus Newman [1] = experiment: fitness (endpoint OD595 vs no drug) (fraction); higher = more growth
In short: (§1)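 With the first reading as background, OD595 was measured every 30 min for 14 h in 384-well plates kept at 37 °C and inoculated at OD595 0.01. TSB, LB Lennox or CY was the medium. Fitness is the optical density at the transition into stationary phase divided by the robust mean of no-drug control wells, with a cap of 1.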

S. pneumoniae D39V [2] = experiment: as above
In short: as §1

S. aureus DSM 20231 [3] = experiment: as above
In short: as §1

B. subtilis 168 = experiment: Bliss interaction score (quartile over a dose matrix) (fitness difference); higher = more antagonism (negative = synergy)
In short: (§2)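 Values were capped at 1 after dividing OD595 at stationary-phase entry by the plate's robust no-drug mean. This ratio is fitness, and single-drug fitness was inferred from the combination data. The Bliss score is observed minus product-expected fitness, given as quartiles over technical, biological and donor/recipient replicates.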

S. aureus Newman [4] = experiment: as above
In short: as §2

S. pneumoniae D39V [5] = experiment: as above
In short: as §2

S. aureus DSM 20231 [6] = experiment: as above
In short: as §2
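Wherever Bliss interaction score (quartile over a dose matrix) is given: first quartile when negative (synergy) and third quartile when positive (antagonism).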

CC1(C)S[C@@H]2[C@H](NC(=O)[C@H](N)c3ccc(O)cc3)C(=O)N2[C@H]1C(=O)O [Amoxicillin] + CCN(CC)CCOC(=O)c1ccc(N)cc1 [Procaine]
fitness
Conditions | partner 85.5 µg/mL | partner 171 µg/mL | partner 342 µg/mL
S. aureus DSM 20231 [3], first compound 0.0625 µg/mL | 0.455 | 0.523 | 0.523
S. aureus DSM 20231 [3], first compound 0.125 µg/mL | 0.423 | 0.478 | 0.495
S. aureus DSM 20231 [3], first compound 0.25 µg/mL | 0.0255 | – | –
S. aureus Newman [1], first compound 0.0625 µg/mL | 0.862 | 0.875 | 0.861
S. aureus Newman [1], first compound 0.125 µg/mL | – | 0.847 | 0.861
S. aureus Newman [1], first compound 0.25 µg/mL | – | 0.841 | 0.811
S. pneumoniae D39V [2], first compound 0.0008 µg/mL | 1 | 0.989 | 0.942
S. pneumoniae D39V [2], first compound 0.0015 µg/mL | 0.985 | 0.971 | 0.987
S. pneumoniae D39V [2], first compound 0.003 µg/mL | 0.918 | 0.93 | 0.992

fitness, one replicate
Conditions | partner 85.5 µg/mL | partner 171 µg/mL | partner 342 µg/mL
S. aureus DSM 20231 [3], first compound 0.5 µg/mL | 0.0288 | 0.0239 | 0.0199
S. pneumoniae D39V [2], first compound 0.006 µg/mL | 0.536 | 0.524 | 0.519

Conditions | Bliss interaction score
B. subtilis 168 | -0.036
S. aureus DSM 20231 [6] | -0.0798
S. aureus Newman [4] | -0.0462
S. pneumoniae D39V [5] | 0.0262

CC1(C)S[C@@H]2[C@H](NC(=O)[C@H](N)c3ccc(O)cc3)C(=O)N2[C@H]1C(=O)O [Amoxicillin] + CC[C@H]1OC(=O)[C@H](C)[C@@H](O[C@H]2C[C@@](C)(OC)[C@@H](O)[C@H](C)O2)[C@H](C)[C@@H](O[C@@H]2O[C@H](C)C[C@H](N(C)C)[C@H]2O)[C@](C)(O)C[C@@H](C)CN(C)[C@H](C)[C@@H](O)[C@]1(C)O [Azithromycin]
fitness
Conditions | first compound 0.0625 µg/mL | first compound 0.125 µg/mL | first compound 0.25 µg/mL
S. aureus DSM 20231 [3], partner 0.125 µg/mL | 0.527 | – | 0.0737
S. aureus DSM 20231 [3], partner 0.25 µg/mL | 0.614 | – | 0.0516
S. aureus DSM 20231 [3], partner 0.5 µg/mL | 0.277 | 0.108 | 0.0273
S. aureus Newman [1], partner 0.125 µg/mL | 0.788 | 0.795 | 0.757
S. aureus Newman [1], partner 0.25 µg/mL | 0.816 | 0.805 | 0.71
S. aureus Newman [1], partner 0.5 µg/mL | 0.681 | – | –

S. aureus DSM 20231 [3], first compound 0.5 µg/mL, one replicate
Conditions | fitness
partner 0.125 µg/mL | 0.0165
partner 0.25 µg/mL | 0.004
partner 0.5 µg/mL | 0.0043

Conditions | Bliss interaction score
B. subtilis 168 | -0.0431
S. aureus DSM 20231 [6] | -0.0724
S. aureus Newman [4] | -0.0697
S. pneumoniae D39V [5] | 0.156

CC1(C)S[C@@H]2[C@H](NC(=O)[C@H](N)c3ccc(O)cc3)C(=O)N2[C@H]1C(=O)O [Amoxicillin] + CN1C2=CC=CC=C2N=C3C1=CC=CC3=O [Pyocyanin]
Conditions | fitness
S. aureus DSM 20231 [3], first compound 0.0625 µg/mL, partner 1.25 µg/mL | 0.673
S. aureus DSM 20231 [3], first compound 0.0625 µg/mL, partner 2.5 µg/mL | 0.635
S. aureus DSM 20231 [3], first compound 0.0625 µg/mL, partner 5 µg/mL | 0.435
S. aureus DSM 20231 [3], first compound 0.125 µg/mL, partner 1.25 µg/mL | 0.418
S. aureus DSM 20231 [3], first compound 0.125 µg/mL, partner 2.5 µg/mL | 0.417
S. aureus DSM 20231 [3], first compound 0.125 µg/mL, partner 5 µg/mL | 0.254
S. aureus DSM 20231 [3], first compound 0.25 µg/mL, partner 1.25 µg/mL | 0.216
S. aureus DSM 20231 [3], first compound 0.25 µg/mL, partner 2.5 µg/mL | 0.195
S. aureus DSM 20231 [3], first compound 0.25 µg/mL, partner 5 µg/mL | 0.121
S. aureus Newman [1], first compound 0.0625 µg/mL, partner 1.25 µg/mL | 0.829
S. aureus Newman [1], first compound 0.0625 µg/mL, partner 2.5 µg/mL | 0.71
S. aureus Newman [1], first compound 0.0625 µg/mL, partner 5 µg/mL | 0.486
S. aureus Newman [1], first compound 0.125 µg/mL, partner 2.5 µg/mL | 0.767
S. aureus Newman [1], first compound 0.125 µg/mL, partner 5 µg/mL | 0.374
S. pneumoniae D39V [2], first compound 0.0008 µg/mL, partner 0.325 µg/mL | 0.992
S. pneumoniae D39V [2], first compound 0.0008 µg/mL, partner 0.65 µg/mL | 0.987
S. pneumoniae D39V [2], first compound 0.0015 µg/mL, partner 0.325 µg/mL | ≥ 1
S. pneumoniae D39V [2], first compound 0.0015 µg/mL, partner 0.65 µg/mL | 0.978
S. pneumoniae D39V [2], first compound 0.0015 µg/mL, partner 1.3 µg/mL | 0.935
S. pneumoniae D39V [2], first compound 0.003 µg/mL, partner 0.325 µg/mL | ≥ 1
S. pneumoniae D39V [2], first compound 0.003 µg/mL, partner 0.65 µg/mL | 0.974
S. pneumoniae D39V [2], first compound 0.003 µg/mL, partner 1.3 µg/mL | 0.945

one replicate
Conditions | fitness
S. aureus DSM 20231 [3], first compound 0.5 µg/mL, partner 1.25 µg/mL | 0.0229
S. aureus DSM 20231 [3], first compound 0.5 µg/mL, partner 2.5 µg/mL | 0.0134
S. aureus DSM 20231 [3], first compound 0.5 µg/mL, partner 5 µg/mL | 0.0115
S. pneumoniae D39V [2], first compound 0.0008 µg/mL, partner 1.3 µg/mL | 0.907
S. pneumoniae D39V [2], first compound 0.006 µg/mL, partner 0.325 µg/mL | 0.624
S. pneumoniae D39V [2], first compound 0.006 µg/mL, partner 0.65 µg/mL | 0.63
S. pneumoniae D39V [2], first compound 0.006 µg/mL, partner 1.3 µg/mL | 0.734

Conditions | Bliss interaction score
B. subtilis 168 | -0.0439
S. aureus DSM 20231 [6] | 0.0915
S. aureus Newman [4] | 0.0587
S. pneumoniae D39V [5] | 0.0791

CC1(C)S[C@@H]2[C@H](NC(=O)[C@H](N)c3ccc(O)cc3)C(=O)N2[C@H]1C(=O)O [Amoxicillin] + CN(N=O)C(=O)N[C@@H](C=O)[C@@H](O)[C@H](O)[C@H](O)CO [Streptozotocin]
fitness
Conditions | first compound 0.0008 µg/mL | first compound 0.0015 µg/mL | first compound 0.003 µg/mL | first compound 0.0625 µg/mL | first compound 0.125 µg/mL | first compound 0.25 µg/mL
S. aureus DSM 20231 [3], partner 0.15 µg/mL | – | – | – | 0.434 | 0.362 | 0.0212
S. aureus DSM 20231 [3], partner 0.3 µg/mL | – | – | – | 0.496 | 0.286 | 0.0296
S. aureus DSM 20231 [3], partner 0.6 µg/mL | – | – | – | 0.41 | 0.234 | 0.0211
S. aureus Newman [1], partner 0.15 µg/mL | – | – | – | 0.769 | 0.736 | 0.753
S. aureus Newman [1], partner 0.3 µg/mL | – | – | – | 0.669 | 0.677 | 0.64
S. aureus Newman [1], partner 0.6 µg/mL | – | – | – | 0.523 | 0.524 | 0.491
S. pneumoniae D39V [2], partner 1.2 µg/mL | 0.935 | 0.866 | 0.844 | – | – | –
S. pneumoniae D39V [2], partner 2.4 µg/mL | 0.963 | 0.945 | 0.929 | – | – | –
S. pneumoniae D39V [2], partner 4.8 µg/mL | 0.928 | 0.877 | 0.812 | – | – | –

fitness, one replicate
Conditions | partner 0.15 µg/mL | partner 0.3 µg/mL | partner 0.6 µg/mL | partner 1.2 µg/mL | partner 2.4 µg/mL | partner 4.8 µg/mL
S. aureus DSM 20231 [3], first compound 0.5 µg/mL | 0.0024 | 0.0025 | 0 | – | – | –
S. pneumoniae D39V [2], first compound 0.006 µg/mL | – | – | – | 0.376 | 0.405 | 0.365

Conditions | Bliss interaction score
B. subtilis 168 | 0.0362
S. aureus DSM 20231 [6] | -0.0844
S. aureus Newman [4] | -0.0299
S. pneumoniae D39V [5] | -0.0885
